We go through 2 molecules from patent US7709645B2, “Pyrrolo-pyridine kinase modulators” (SGX Pharmaceuticals, Inc., priority 2004, dated 2010).

The target in this assay is T1, MET kinase (Homo sapiens, UniProt P08581).
T1 construct: Sf9 insect cell culture expressing the kinase domain of human Met; 6x Histidine tag (TEV-cleavable) (cleaved yes); made in house; host or cells: Sf9 insect cells
Put plainly: Met Bioassay (luminescence-based enzyme assay, Kinase-Glo). The settings on record: 10 μM ATP. The class given is biochemical. The text has this: In addition to the c-Abl PK/LDH coupled assay (above), homogeneous luminescence-based inhibitor screening assays were developed for c-Abl, MET, AurA, and PDK1 kinases (among others). Each of these assays made use of an ATP depletion assay (Kinase-Glo™, Promega Corporation, Madison, Wis.) to quantitate kinase activity. The Kinase-Glo™ format uses a thermostable luciferase to generate luminescent signal from ATP remaining in solution following the kinase reaction. The luminescent signal is inversely correlated with the amount of kinase activity.
Materials: Poly Glu-Tyr (4:1) substrate (Sigma Cat# P-0275), ATP (Sigma Cat#A-3377, FW=551), HEPES buffer, pH 7.5, Bovine serum albumin (BSA) (Roche 92423420), MgCl2, Staurosporine (Streptomyces sp. Sigma Cat#85660-1MG), white Costar 384-well flat-bottom plate (VWR Cat#29444-088). MET kinase (see below), Kinase-Glo™ (Promega Cat#V6712).
Stock Solutions: 10 mg/ml poly Glu-Tyr in water, stored at −20° C.; 100 mM HEPES buffer, pH 7.5 (5 ml 1M stock+45 ml miliQH2O); 10 mM ATP (5.51 mg/ml in dH2O) stored at −20° C. (diluted 50 μl into total of 10 ml miliQH2O daily=50 μM ATP working stock); 1% BSA (1 g BSA in 100 ml 0.1M HEPES, pH 7.5, stored at −20° C.), 100 mM MgCl2; 200 μM Staurosporine, 2× Kinase-Glo™ reagent (made fresh or stored at −20° C.).
Standard Assay Setup for 384-well format (20 μl kinase reaction, 40 μl detection reaction): 10 mM MgCl2; 0.3 mg/ml poly Glu-Tyr; 0.1% BSA; 1 μl test compound (in DMSO); 0.4 μg/ml MET kinase; 10 μM ATP; 100 mM HEPES buffer. Positive controls contained DMSO with no test compound. Negative controls contained 10 μM staurosporine. The kinase reactions were initiated at time t=0 by the addition of ATP. Kinase reactions were incubated at 21° C. for 60 min, then 20 μl of Kinase-Glo™ reagent were added to each well to quench the kinase reaction and initiate the luminescence reaction. After a 20 min incubation at 21° C., the luminescence was detected in a plate-reading luminometer.
The cell pellets produced from half of a 12 L Sf9 insect cell culture expressing the kinase domain of human Met were resuspended in a buffer containing 50 mM Tris-HCl pH 7.7 and 250 mM NaCl, in a volume of approximately 40 ml per 1 L of original culture. One tablet of Roche Complete, EDTA-free protease inhibitor cocktail (Cat# 1873580) was added per 1 L of original culture. The suspension was stirred for 1 hour at 4° C. Debris was removed by centrifugation for 30 minutes at 39,800×g at 4° C. The supernatant was decanted into a 500 ml beaker and 10 ml of 50% slurry of Qiagen Ni-NTA Agarose (Cat# 30250) that had been pre-equilibrated in 50 mM Tris-HCl pH 7.8, 50 mM NaCl, 10% Glycerol, 10 mM Imidazole, and 10 mM Methionine, were added and stirred for 30 minutes at 4° C. The sample was then poured into a drip column at 4° C. and washed with 10 column volumes of 50 mM Tris-HCl pH 7.8, 500 mM NaCl, 10% Glycerol, 10 mM Imidazole, and 10 mM Methionine. The protein was eluted using a step gradient with two column volumes each of the same buffer containing 50 mM, 200 mM, and 500 mM Imidazole, sequentially. The 6× Histidine tag was cleaved overnight using 40 units of TEV protease (Invitrogen Cat#10127017) per 1 mg of protein while dialyzing in 50 mM Tris-HCl pH 7.8, 500 mM NaCl, 10% Glycerol, 10 mM Imidazole, and 10 mM Methionine at 4° C. The 6× Histidine tag was removed by passing the sample over a Pharmacia 5 ml IMAC column (Cat# 17-0409-01) charged with Nickel and equilibrated in 50 mM Tris-HCl pH 7.8, 500 mM NaCl, 10% Glycerol, 10 mM Imidazole, and 10 mM Methionine. The cleaved protein bound to the Nickel column at a low affinity and was eluted with a step gradient. The step gradient was run with 15% and then 80% of the B-side (A-side=50 mM Tris-HCl pH 7.8, 500 mM NaCl, 10% Glycerol, 10 mM Imidazole, and 10 mM Methionine; B-side=50 mM Tris-HCl pH 7.8, 500 mM NaCl, 10% Glycerol, 500 mM Imidazole, and 10 mM Methionine) for 4 column volumes each. […]
On the technique in general: Kinase-Glo reads ATP consumption through a luciferase reaction.

T1 sequence (P08581 1078-1345 limits assumed): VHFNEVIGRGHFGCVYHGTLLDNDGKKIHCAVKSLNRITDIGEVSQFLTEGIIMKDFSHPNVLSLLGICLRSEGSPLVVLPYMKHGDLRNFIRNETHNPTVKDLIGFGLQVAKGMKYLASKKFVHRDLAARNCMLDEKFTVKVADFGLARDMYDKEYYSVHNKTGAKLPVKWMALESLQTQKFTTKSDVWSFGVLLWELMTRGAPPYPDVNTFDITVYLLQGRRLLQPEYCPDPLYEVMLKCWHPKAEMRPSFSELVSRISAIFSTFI

On to `COc1ccc(-c2cnc3[nH]cc(-c4ccc(N)nc4)c3c2)cc1OC` [AE56], for which the IC50 was less than 1000 nM. The value for `COCCNc1ccc(-c2c[nH]c3ncc(-c4ccc(OC)c(OC)c4)cc23)cn1` [AE57] was 1000 to 5000 nM.

What is called IC50 is the point on the concentration scale where inhibition reaches its midpoint. A lower IC50 goes with greater potency in that assay.
